Measurements as given in US6528522B2, “Substituted imidazoles as dual histamine H1 and H3 agonists or antagonists” (Schering Corporation, priority 2000, dated 2003).

How the values were obtained:
[1] = target: T1, H3 receptors (Cavia porcellus, UniProt Q9JI35); experiment: H3-Receptor Binding Assay (guinea pig brain membranes, [3H]R-α-methyl histamine or [3H]Nα-methyl histamine); conditions: HCl salt of the indicated compound, read-out: H3 Ave Ki
T1 construct: The source of the H3 receptors in this experiment was guinea pig brain; from tissue; host or cells: guinea pig brain membranes
T1 sequence (Q9JI35 whole entry): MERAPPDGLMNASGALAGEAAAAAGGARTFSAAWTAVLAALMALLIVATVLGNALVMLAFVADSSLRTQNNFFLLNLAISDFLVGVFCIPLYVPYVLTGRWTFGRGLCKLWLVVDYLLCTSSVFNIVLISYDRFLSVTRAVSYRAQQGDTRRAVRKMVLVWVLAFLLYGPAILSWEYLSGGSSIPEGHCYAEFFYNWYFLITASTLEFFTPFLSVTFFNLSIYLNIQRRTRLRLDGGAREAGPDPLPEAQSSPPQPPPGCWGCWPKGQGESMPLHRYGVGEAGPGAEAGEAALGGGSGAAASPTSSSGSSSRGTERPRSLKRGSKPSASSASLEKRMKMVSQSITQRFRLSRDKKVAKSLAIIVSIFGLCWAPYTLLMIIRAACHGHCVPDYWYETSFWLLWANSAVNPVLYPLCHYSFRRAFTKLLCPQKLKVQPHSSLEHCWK
Method: General Procedure for H3—Receptor Binding Assay
The source of the H3 receptors in this experiment was guinea pig brain. The animals weighed 400-600 g. The brain tissue was homogenized with a solution of 50 mM Tris, pH 7.5. The final concentration of tissue in the homogenization buffer was 10% w/v. The homogenates were centrifuged at 1,000×g for 10 min. in order to remove clumps of tissue and debris. The resulting supernatants were then centrifuged at 50,000×g for 20 min. in order to sediment the membranes, which were next washed three times in homogenization buffer (50,000×g for 20 min. each). The membranes were frozen and stored at −70° C. until needed.
All compounds to be tested were dissolved in DMSO and then diluted into the binding buffer (50 mM Tris, pH 7.5) such that the final concentration was 2 μg/ml with 0.1% DMSO. Membranes were then added (400 μg of protein) to the reaction tubes. The reaction was started by the addition of 3 nM [^3H]R-α-methyl histamine (8.8 Ci/mmol) or 3 nM [^3H]N^α-methyl histamine (80 Ci/mmol) and continued under incubation at 30° C. for 30 min. Bound ligand was separated from unbound ligand by filtration, and the amount of radioactive ligand bound to the membranes was quantitated by liquid scintillation spectrometry. All incubations were performed in duplicate and the standard error was always less than 10%. Compounds that inhibited more than 70% of the specific binding of radioactive ligand to the receptor were serially diluted to determine a Ki (nM). The results are given in the Table 1 for the HCl salt of the indicated compound.

[2] = target: T2, histamine H1 receptor (Rattus norvegicus, UniProt P31390); experiment: H1-Receptor Binding Assay (rat brain membranes, [3H]pyrilamine); conditions: male Sprague-Dawley rat brain membranes, Ki by Cheng-Prusoff, HCl salt of the indicated compound, read-out: H1 Ave Ki
T2 construct: The tissue source was male Sprague-Dawley rat brain; tissue Rockland Corporation, Gilbertsville, Pa; host or cells: male Sprague-Dawley rat brain membranes
T2 sequence (P31390 whole entry): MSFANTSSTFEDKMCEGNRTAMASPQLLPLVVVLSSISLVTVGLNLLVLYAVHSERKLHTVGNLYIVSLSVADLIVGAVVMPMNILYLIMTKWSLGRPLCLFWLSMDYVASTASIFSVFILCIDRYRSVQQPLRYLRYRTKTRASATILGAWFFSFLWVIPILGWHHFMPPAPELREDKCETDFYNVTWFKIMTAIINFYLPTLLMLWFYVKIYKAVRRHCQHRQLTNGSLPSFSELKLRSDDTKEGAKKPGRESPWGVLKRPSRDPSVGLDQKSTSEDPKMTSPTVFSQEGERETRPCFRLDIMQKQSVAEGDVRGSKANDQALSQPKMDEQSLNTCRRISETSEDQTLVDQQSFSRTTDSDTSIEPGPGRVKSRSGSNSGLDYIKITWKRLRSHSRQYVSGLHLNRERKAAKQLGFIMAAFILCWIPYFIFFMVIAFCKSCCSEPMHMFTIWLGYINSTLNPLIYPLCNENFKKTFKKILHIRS
Excerpt: General Procedure for H1.—Receptor Binding Assay: The procedure used was based on that disclosed in V. T. Tran et al, “Histamine H1 receptors identified in mammalian brain membranes with [H-3]mepyramine”, Proc. Natl. Acad. Sci. U.S.A. 75 (1978) 6290-6294.
I. Tissue preparation protocol for histamine H1 receptor binding assay:
1. The tissue source was male Sprague-Dawley rat brain. These were purchased stripped and frozen (available from Rockland Corporation, Gilbertsville, Pa.). The buffer used was ice-cold 50 mM Tris-HCl, pH 7.5. (The pH was determined at 25° C.)
2. The brains were spread out on plastic wrap on the benchtop and allowed to thaw for 10-15 min. After this, everything was kept ice-cold.
3. Two brains were put in each 50 ml round bottom centrifuge tube and 25 ml of buffer was added. Then they were broken up with a Polytron (from Brinkmann Instruments, Westbury, N.Y.) equipped with a PT-10 tip at setting 6 for 30 sec.
4. The volume in the tube was brought up to 45 ml and mixed and the particulate material was centrifuged at 1000×g (3000 rpm, SS-34 rotor) for 10 min to remove nuclei and unbroken cells.
5. Pellets were discarded and the supernatants were centrifuged 10 min at 50,000×g (20,000 rpm, SS-34 rotor).
6. The high-speed pellets were resuspended in a volume of Tris buffer equal to the original (4 ml), the contents of all tubes were pooled, and a sample was taken for BCA protein assay . The material was aliquotted, 45 ml per round-bottom tube, and the resuspension was recentrifuged. The yield of protein was approximately 20 mg/brain, so there was about 40 mg of protein per tube.
7 . Pellets were frozen at −80° C.
II. H1 Histamine receptor binding assay:
1. FDCL and comparative compounds for assay were independently solubilized at 1 mg/ml DMSO by vortexing, or if necessary by sonication. The first dilution, 100-fold, was made in 50 mM Tris-HCl, pH 7.5, at room temperature. The three or four subsequent ten-fold serial dilutions were made in 1% DMSO/50 mM Tris-HCl, pH 7.5. Drug solutions and assay plates were kept at room temperature during the course of the assay set up.
2. Test compounds were assayed at four or five concentrations: 1, 0.1, 0.01, 0.001, and 0.0001 μg/ml. Twenty μl of drug solution was pipeted into each of three wells.
3. [^3H]Pyrilamine was diluted approximately 2000-fold with ice-cold […] Tris-HCl, pH 7.5 (to a working concentration of 20-25 nM), and put on ice.
4. A frozen tissue pellet was thawed in a 25° C. water bath, resuspended in 50 mM Tris-HCl, pH 7.5, at 1.7-2 mg/ml by brief break-up on the Polytron, and put on ice.
5. Twenty μl of diluted [^3H]pyrilamine was added to each well.
6. One hundred fifty μl of tissue suspension was added to each well.
7. The top of the plate was covered and it was placed in a 25° C. shaking water bath (about 60 oscillations/min) for 30 min..
8. Samples were filtered on a Tomtec Mach 2 harvester (available from Tomtec Corporation, Orange, Conn.) through a GF/B filter mat (from Wallac, Inc., Gaithersburg, Md.) presoaked in 0.3% polyethylenimine. Each sample was thrice washed with ice-cold 50 mM Tris-HCl, pH 7.5 dried 20 sec on the Tomtec, and dried 3-4 min in a microwave oven on a paper towel. The filter was impregnated with MELTILEX brand wax scintillant (from Wallac Corporation) and counted on a Betaplate scintillation counter (from Wallac Corporation).
9. Specific binding was determined as the difference between total and nonspecific binding. […]

With `Clc1ccc2c(c1)CCc1cccnc1C2CCNCCCCc1c[nH]cn1` (centres unmarked) the Ki [1] was 7.5 nM.
Work on `Clc1ccc2c(c1)CCc1cccnc1C2NCCc1c[nH]cn1` (centres unmarked) yielded a Ki [1] of 70 nM and a Ki [2] of 144 nM.
`Clc1ccc2c(c1)CCc1cccnc1C2CCNCCCCCc1c[nH]cn1` (centres unmarked) was tested, and the Ki [1] was 7 nM.
In the case of `Clc1ccc2c(c1)CCc1cccnc1C2NCCCCc1c[nH]cn1` (centres unmarked), the Ki [1] is reported as 29 nM and the Ki [2] is reported as 41 nM.
With `Clc1ccc2c(c1)CCc1cccnc1C2CCNCCCc1c[nH]cn1` (centres unmarked) the Ki [1] was 37 nM and the Ki [2] was 40 nM.
Compound `Clc1ccc2c(c1)CCc1cccnc1C2CCN(CCCc1c[nH]cn1)CCCc1c[nH]cn1` (centres unmarked) has a Ki [1] of 25 nM and a Ki [2] of 571 nM.
`Clc1ccc2c(c1)CCc1cccnc1C2NCCCCCc1c[nH]cn1` (centres unmarked) gave a Ki [1] of 7.5 nM and a Ki [2] of 502 nM.
In the case of `Clc1ccc2c(c1)CCc1cccnc1C2CCN(CCCCCc1c[nH]cn1)CCCCCc1cnc[nH]1` (centres unmarked), the Ki [1] is reported as 26 nM.
`Clc1ccc2c(c1)CCc1cccnc1C2CCN(CCCCc1c[nH]cn1)CCCCc1c[nH]cn1` (centres unmarked) showed a Ki [1] of 9 nM.
